Measured values as given in patent US11566007B2, “Ras inhibitors” (Revolution Medicines, Inc., priority 2019, dated 2023).

Key:
K-Ras G13C = K-Ras G13C (Homo sapiens (Human), UniProt P01116+P62937, G13C); assay: Ras-Raf (BRAF RBD) disruption / FRET / MOA assay, KRAS G13C; assay type: biochemical; settings: KRAS G13C; Ras-Raf disruption/FRET/MOA assay; read-out: IC50* KRAS G13C FRET data
Method in brief: (§1)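 Ternary complex formation (Ras–compound–cyclophilin A) displacing BRAF RBD, monitored by TR-FRET. Three hours at 25° C with compound (top 30 μM final), then 1.5 h with the labelled antibodies. Lower ratio than DMSO indicates disruption; IC50 reported.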

[1] = tested on: NCI-H358 cells (K-Ras G12C); assay: Potency assay: pERK in NCI-H358 cells; assay type: cell-based, human; settings: Homo sapiens, NCI-H358; H358 KRAS G12C; read-out: pERK EC50
Method in brief: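 Compounds are dosed as ten 3-fold dilutions from a 10 mM DMSO stock, in duplicate, and left on cells for 4 h at 37 °C, 5% CO2. Phospho-ERK1/2 is then quantified by AlphaLISA SureFire Ultra or In-Cell Western, and IC50 is derived from a 4-parameter sigmoid against log concentration.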

KRAS G12V = KRAS G12V (Homo sapiens (Human), UniProt P01116+P62937, G12V); assay: Ras-Raf (BRAF RBD) disruption / FRET / MOA assay, KRAS G12V; assay type: biochemical; settings: read-out: IC50* KRAS G12V FRET data
KRAS G12V, sequence (P01116-2 other isoform, or with tags, fused parts or gaps G12V): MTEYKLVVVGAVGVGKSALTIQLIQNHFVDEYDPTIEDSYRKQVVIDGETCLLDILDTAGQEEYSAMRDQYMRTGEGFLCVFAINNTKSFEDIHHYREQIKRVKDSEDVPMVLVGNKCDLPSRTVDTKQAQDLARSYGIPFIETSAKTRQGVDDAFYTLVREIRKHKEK
KRAS G12V, sequence (P62937 whole entry): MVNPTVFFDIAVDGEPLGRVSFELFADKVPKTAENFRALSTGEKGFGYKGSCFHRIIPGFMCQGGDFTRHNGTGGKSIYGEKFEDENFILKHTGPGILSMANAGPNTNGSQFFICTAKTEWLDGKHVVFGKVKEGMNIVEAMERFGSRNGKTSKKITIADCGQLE
Method in brief: as §1

NRAS Q61R = NRAS Q61R (Homo sapiens (Human), UniProt P01111+P62937, Q61R); assay: Ras-Raf (BRAF RBD) disruption / FRET / MOA assay, NRAS Q61R; assay type: biochemical; settings: NRAS Q61R; Ras-Raf disruption/FRET/MOA assay; read-out: IC50* NRAS Q61R FRET data
NRAS Q61R, sequence (P01111 whole entry Q61R): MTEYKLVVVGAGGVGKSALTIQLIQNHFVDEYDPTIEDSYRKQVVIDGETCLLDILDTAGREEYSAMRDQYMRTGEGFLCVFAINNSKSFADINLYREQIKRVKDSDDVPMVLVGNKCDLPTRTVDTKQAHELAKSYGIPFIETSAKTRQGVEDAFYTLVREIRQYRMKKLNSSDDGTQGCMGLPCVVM
NRAS Q61R, sequence (P62937 whole entry): as the sequence (P62937 whole entry) above
Method in brief: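 Compounds were tested as a 10-point 3-fold dilution series from 30 μM final for their ability to drive ternary complex formation between nucleotide-loaded Ras and cyclophilin A, displacing the BRAF RBD. After 3 h at 25° C., anti-His Eu-W1024 (10 nM) and anti-GST allophycocyanin (50 nM) were added for 1.5 h. A TR-FRET ratio decrease versus DMSO gave IC50.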

KRAS G12D = KRAS G12D (Homo sapiens (Human), UniProt P01116+P62937, G12D); assay: Ras-Raf (BRAF RBD) disruption / FRET / MOA assay, KRAS G12D; assay type: biochemical; settings: Ras-Raf disruption/FRET/MOA assay; class symbols; read-out: KRAS G12D FRET data IC50
KRAS G12D, sequence (P01116-2 other isoform, or with tags, fused parts or gaps G12D): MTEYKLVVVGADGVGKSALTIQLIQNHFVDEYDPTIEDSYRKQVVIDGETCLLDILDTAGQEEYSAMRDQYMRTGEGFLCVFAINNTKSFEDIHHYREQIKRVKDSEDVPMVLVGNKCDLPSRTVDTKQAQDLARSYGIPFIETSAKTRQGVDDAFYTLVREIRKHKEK
KRAS G12D, sequence (P62937 whole entry): as the sequence (P62937 whole entry) above
Method in brief: as §1

KRAS G13D = KRAS G13D (Homo sapiens (Human), UniProt P01116+P62937, G13D); assay: Ras-Raf (BRAF RBD) disruption / FRET / MOA assay, KRAS G13D; assay type: biochemical; settings: read-out: IC50* KRAS G13D FRET data
KRAS G13D, sequence (P01116-2 other isoform, or with tags, fused parts or gaps G13D): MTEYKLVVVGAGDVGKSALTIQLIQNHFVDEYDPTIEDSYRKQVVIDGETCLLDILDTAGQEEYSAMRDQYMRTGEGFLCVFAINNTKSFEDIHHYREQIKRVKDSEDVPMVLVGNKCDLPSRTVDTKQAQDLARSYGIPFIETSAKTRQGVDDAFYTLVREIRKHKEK
KRAS G13D, sequence (P62937 whole entry): as the sequence (P62937 whole entry) above
Method in brief: as §1

K-Ras G12C = K-Ras G12C (Homo sapiens (Human), UniProt P01116+P62937, G12C); assay: Ras-Raf (BRAF RBD) disruption / FRET / MOA assay, KRAS G12C; assay type: biochemical; settings: KRAS G12C; Ras-Raf disruption/FRET/MOA assay; read-out: IC50* KRAS G12C FRET data
K-Ras G12C, sequence (P01116-2 other isoform, or with tags, fused parts or gaps G12C): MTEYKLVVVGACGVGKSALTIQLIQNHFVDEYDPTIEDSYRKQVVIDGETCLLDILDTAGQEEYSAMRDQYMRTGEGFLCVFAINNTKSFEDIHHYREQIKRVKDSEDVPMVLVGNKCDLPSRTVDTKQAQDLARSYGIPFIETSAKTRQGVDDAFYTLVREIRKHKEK
K-Ras G12C, sequence (P62937 whole entry): as the sequence (P62937 whole entry) above
Method in brief: as §1

K-Ras G13C, sequence (P01116-2 other isoform, or with tags, fused parts or gaps G13C): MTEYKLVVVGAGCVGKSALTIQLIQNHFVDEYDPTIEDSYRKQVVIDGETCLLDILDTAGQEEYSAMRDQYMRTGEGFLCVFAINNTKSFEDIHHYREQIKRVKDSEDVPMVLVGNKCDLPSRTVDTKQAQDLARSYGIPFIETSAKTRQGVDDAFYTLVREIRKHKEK
K-Ras G13C, sequence (P62937 whole entry): as the sequence (P62937 whole entry) above

Structure (SMILES)	IC50 (K-Ras G13C) [nM]	EC50 [1] [nM]	IC50 (KRAS G12V) [nM]	IC50 (NRAS Q61R) [nM]	IC50 (KRAS G12D) [nM]	IC50 (KRAS G13D) [nM]	IC50 (K-Ras G12C) [nM]
C=CC(=O)Nc1cnc(OC[C@H](C(=O)N[C@H]2Cc3cccc(c3)-c3ccc4c(c3)c(c(-c3cccnc3[C@H](C)OC)n4CC)CC(C)(C)COC(=O)[C@@H]3CCCN(N3)C2=O)C(C)C)n1C (atropisomer, axis not shown) [Example A600]	10 to 100	< 5000	1000 to 10000	1000 to 10000	1000 to 10000	1000 to 10000	< 10
C=CC(=O)N1CCOC2(C1)CN(C(=O)N(C)[C@H](C(=O)N[C@H]1Cc3nc(cs3)-c3ccc4c(c3)c(c(-c3cccnc3[C@H](C)OC)n4CC(F)(F)F)CC(C)(C)COC(=O)[C@@H]3CCCN(N3)C1=O)C(C)C)C2 (atropisomer, axis not shown) [Example A604]	10 to 100	< 5000	100 to 1000	100 to 1000	1000 to 10000	1000 to 10000	100 to 1000
C=CC(=O)N1CCOC2(CCN(C(=O)N(C)[C@H](C(=O)N[C@H]3Cc4cc(CF)cc(c4)-c4ccc5c(c4)c(c(-c4cccnc4[C@H](C)OC)n5CC(F)(F)F)CC(C)(C)COC(=O)[C@@H]4CCCN(N4)C3=O)C(C)C)CC2)C1 (atropisomer, axis not shown) [Example A605]	10 to 100	< 5000	100 to 1000	100 to 1000	100 to 1000	100 to 1000	100 to 1000
C=CC(=O)N1CCOC2(CCN(C(=O)N(C)[C@H](C(=O)N[C@H]3Cc4cccc(c4)-c4ccc5c(c4)c(c(-c4cccnc4[C@H](C)OC)n5CC(F)(F)F)CC(C)(C)COC(=O)[C@@H]4CCCN(N4)C3=O)C(C)C)CC2)C1 (atropisomer, axis not shown) [Example A608]	10 to 100	< 5000	100 to 1000	100 to 1000	100 to 1000	100 to 1000	100 to 1000
C=CC(=O)N1CCC[C@@H]2CN(C(=O)N(C)[C@H](C(=O)N[C@H]3Cc4nc(cs4)-c4ccc5c(c4)c(c(-c4cccnc4[C@H](C)OC)n5CC)CC(C)(C)COC(=O)[C@@H]4CCCN(N4)C3=O)C(C)C)C[C@@H]21 (atropisomer, axis not shown) [Example A619]	100 to 1000	< 5000	1000 to 10000	100 to 1000	1000 to 10000	1000 to 10000	100 to 1000
CCn1c(-c2cccnc2[C@H](C)OC)c2c3cc(ccc31)-c1csc(n1)C[C@H](NC(=O)[C@H](C(C)C)N(C)C(=O)N1CCC3(CC1)CN(C(=O)/C=C/CF)C3)C(=O)N1CCC[C@H](N1)C(=O)OCC(C)(C)C2 (atropisomer, axis not shown) [Example A622]	10 to 100	< 5000	100 to 1000	100 to 1000	100 to 1000	100 to 1000	10 to 100
CCn1c(-c2cccnc2[C@H](C)OC)c2c3cc(ccc31)-c1csc(n1)C[C@H](NC(=O)[C@@H](F)COC1CN(C(=O)C#CC(C)(C)N(C)C)C1)C(=O)N1CCC[C@H](N1)C(=O)OCC(C)(C)C2 (atropisomer, axis not shown) [Example A626]	1000 to 10000	< 5000	1000 to 10000	1000 to 10000	1000 to 10000	1000 to 10000	< 10
CO[C@@H](C)c1ncccc1-c1c2c3cc(ccc3n1CC(F)(F)F)N1CCO[C@@H](C[C@H](NC(=O)[C@H](C(C)C)N3CC[C@@]4(CCN(C(=O)C#CC(C)(C)N(C)C)C4)C3=O)C(=O)N3CCC[C@H](N3)C(=O)OCC(C)(C)C2)C1 (atropisomer, axis not shown) [Example A628]	1000 to 10000	< 5000	1000 to 10000	> 10000	> 10000	> 10000	< 10
C=CC(=O)N(C)CCN1CCN(C(=O)N(C)[C@H](C(=O)N[C@H]2Cc3nc(cs3)-c3ccc4c(c3)c(c(-c3cccnc3[C@H](C)OC)n4CC)CC(C)(C)COC(=O)[C@@H]3CCCN(N3)C2=O)C(C)C)CC1 (atropisomer, axis not shown) [Example A630]	10 to 100	< 5000	100 to 1000	100 to 1000	1000 to 10000	1000 to 10000	100 to 1000
C=CC(=O)N(C)[C@H]1CN(C(=O)N(C)[C@H](C(=O)N[C@H]2Cc3nc(cs3)-c3ccc4c(c3)c(c(-c3cccnc3[C@H](C)OC)n4CC)CC(C)(C)COC(=O)[C@@H]3CCCN(N3)C2=O)C(C)C)C[C@H]1F (atropisomer, axis not shown) [Example A631]	100 to 1000	< 5000	100 to 1000	100 to 1000	1000 to 10000	100 to 1000	100 to 1000
C=CC(=O)N1CC[C@H](C(=O)N(C)[C@@H](CC(F)(F)F)C(=O)N[C@H]2Cc3cccc(c3)-c3ccc4c(c3)c(c(-c3cccnc3[C@H](C)OC)n4CC)CC(C)(C)COC(=O)[C@@H]3CCCN(N3)C2=O)C1 (atropisomer, axis not shown) [Example A639]	1000 to 10000	< 5000	1000 to 10000	1000 to 10000	> 10000	> 10000	100 to 1000
CCn1c(-c2cccnc2[C@H](C)OC)c2c3cc(ccc31)N1CCO[C@@H](C[C@H](NC(=O)[C@@H](COC3CCN(C(=O)C#CC(C)(C)N(C)C)CC3)C(C)C)C(=O)N3CCC[C@H](N3)C(=O)OCC(C)(C)C2)C1 (atropisomer, axis not shown) [Example A643, (2R)-2-(((1-(4-(dimethylamino)-4-methylpent-2-ynoyl)piperidin-4-yl)oxy)methyl)-N-((2^2S,6^3S,4S)-1^1-ethyl-1^2-(2-((S)-1-methoxyethyl)pyridin-3-yl)-10,10-dimethyl-5,7-dioxo-6^1,6^2,6^3,6^4,6^5,6^6-hexahydro-1^1H-8-oxa-2(4,2)-morpholina-1(5,3)-indola-6(1,3)-pyridazinacycloundecaphane-4-yl)-3-methylbutanamide]	1000 to 10000	< 5000	> 10000	> 10000	> 10000	> 10000	10 to 100
CCn1c(-c2cccnc2[C@H](C)OC)c2c3cc(ccc31)-c1cccc(c1)C[C@H](NC(=O)[C@@H](COC1CN(C(=O)C#C[C@H]3COCCN3C)C1)C(C)C)C(=O)N1CCC[C@H](N1)C(=O)OCC(C)(C)C2 (atropisomer, axis not shown) [Example A644]	1000 to 10000	< 5000	> 10000	> 10000	> 10000	> 10000	10 to 100
CCn1c(-c2cccnc2[C@H](C)OC)c2c3cc(ccc31)-c1cccc(c1)C[C@H](NC(=O)[C@@H](COC1CN(C(=O)C#C[C@@H]3OCCCN3C)C1)C(C)C)C(=O)N1CCC[C@H](N1)C(=O)OCC(C)(C)C2 (atropisomer, axis not shown) [Example A648]	1000 to 10000	< 5000	> 10000	> 10000	> 10000	> 10000	100 to 1000
CCn1c(-c2cccnc2[C@H](C)OC)c2c3cc(ccc31)-c1cnc(o1)C[C@H](NC(=O)[C@@H](COC1CN(C(=O)C#CC(C)(C)N(C)C)C1)C(C)C)C(=O)N1CCC[C@H](N1)C(=O)OCC(C)(C)C2 (atropisomer, axis not shown) [Example A649]	> 10000	< 5000	> 10000	> 10000	> 10000	> 10000	10 to 100
CCn1c(-c2cccnc2[C@H](C)OC)c2c3cc(ccc31)-c1csc(n1)C[C@H](NC(=O)[C@H](C(C)C)N(C)C(=O)N1CCC3(CC1)CN(C(=O)/C=C/CN(C)C)C3)C(=O)N1CCC[C@H](N1)C(=O)OCC(C)(C)C2 (atropisomer, axis not shown) [Example A650]	10 to 100	< 5000	100 to 1000	100 to 1000	100 to 1000	100 to 1000	10 to 100
CCn1c(-c2cccnc2[C@H](C)OC)c2c3cc(ccc31)-c1csc(n1)C[C@H](NC(=O)[C@H](C(C)C)N(C)C(=O)N1CCC13CN(C(=O)C#CC(C)(C)N(C)C)C3)C(=O)N1CCC[C@H](N1)C(=O)OCC(C)(C)C2 (atropisomer, axis not shown) [Example A656]	1000 to 10000	< 5000	1000 to 10000	100 to 1000	1000 to 10000	1000 to 10000	100 to 1000
